Data reported in ChEMBL document CHEMBL1201862, “PubChem BioAssay data set” (2004).
Active and inactive are the calls of the source. For most assays here, no stated cut-off is given here; in the data, actives have a measured EC50 and inactives only a lower limit.

Assays:
Cysteine protease ATG4B = molecular target: T1, Cysteine protease ATG4B (Homo sapiens, UniProt Q9Y4P1); assay type: functional;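 further: Fluorescence-based dose-response confirmation assay measuring inhibition of ATG4B activity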
T1 sequence (Q9Y4P1 whole entry): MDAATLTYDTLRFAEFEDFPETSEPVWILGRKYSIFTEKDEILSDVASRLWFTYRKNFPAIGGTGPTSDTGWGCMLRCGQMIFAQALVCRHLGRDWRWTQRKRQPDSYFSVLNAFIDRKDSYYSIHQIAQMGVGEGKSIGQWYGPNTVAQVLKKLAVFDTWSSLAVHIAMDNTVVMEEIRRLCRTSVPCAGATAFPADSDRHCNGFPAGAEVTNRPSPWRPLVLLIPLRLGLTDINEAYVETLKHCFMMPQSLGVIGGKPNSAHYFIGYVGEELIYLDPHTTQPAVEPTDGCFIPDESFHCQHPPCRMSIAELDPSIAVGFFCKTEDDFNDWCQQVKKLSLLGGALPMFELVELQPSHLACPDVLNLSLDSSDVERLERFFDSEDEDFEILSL

Phospholipase A2 = Phospholipase A2 (Homo sapiens, UniProt P04054); assay type: functional;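 further: confirmatory dose-response counterscreen on phospholipase A2, testing hits that came from an ultra-high-throughput screen for ATG4B inhibitors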
Sequence of Phospholipase A2 (P04054 whole entry): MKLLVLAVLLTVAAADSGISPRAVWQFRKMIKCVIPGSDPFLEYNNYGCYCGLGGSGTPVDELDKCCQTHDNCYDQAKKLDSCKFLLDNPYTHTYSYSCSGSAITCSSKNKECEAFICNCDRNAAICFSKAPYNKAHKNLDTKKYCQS

HEK293 [1] = experiment: cells; details: Homo sapiens
HEK293 [2] = experiment: cells; details: Homo sapiens; remark: listed apart in the source
[3] = NIH-3T3 fibroblast cytotoxicity, dose response, cytotoxicity control, cell-based, fluorescence, Alamar Blue, secondary assay (AID 2327); assay type: functional;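 further: NIH-3T3 mouse fibroblasts cultured with fluconazole at 8 µg/mL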
[4] = luciferase reporter signal suppression in cells – H4 neuroglioma cells, luminescence, dose response (AID 1990); assay type: functional, cell-based
[5] = Luminescence Cell-Based Dose Response HTS to Identify Inhibitors of 5'UTR Stem-Loop Driven Prion Protein mRNA Translation in H4 Neuroglioblastoma Cells. [Related pubchem assays: 1827 (Project Summary), 1813 (Primary HTS)]; assay type: functional
[6] = molecular target: T2, Heat shock factor protein 1 (Mus musculus, UniProt P38532); experiment: decrease of HSF1-responsive luciferase luminescence – cell-based, NIH3T3, dose retest, confirmation (AID 2382); assay type: functional;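 further: NIH3T3 fibroblasts with HSF1-driven luciferase reporter stressed by proteasome inhibitor MG132; luminescence from HSF1-driven luciferase expression after 8 hours of MG132 stress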
T2 sequence (P38532 whole entry): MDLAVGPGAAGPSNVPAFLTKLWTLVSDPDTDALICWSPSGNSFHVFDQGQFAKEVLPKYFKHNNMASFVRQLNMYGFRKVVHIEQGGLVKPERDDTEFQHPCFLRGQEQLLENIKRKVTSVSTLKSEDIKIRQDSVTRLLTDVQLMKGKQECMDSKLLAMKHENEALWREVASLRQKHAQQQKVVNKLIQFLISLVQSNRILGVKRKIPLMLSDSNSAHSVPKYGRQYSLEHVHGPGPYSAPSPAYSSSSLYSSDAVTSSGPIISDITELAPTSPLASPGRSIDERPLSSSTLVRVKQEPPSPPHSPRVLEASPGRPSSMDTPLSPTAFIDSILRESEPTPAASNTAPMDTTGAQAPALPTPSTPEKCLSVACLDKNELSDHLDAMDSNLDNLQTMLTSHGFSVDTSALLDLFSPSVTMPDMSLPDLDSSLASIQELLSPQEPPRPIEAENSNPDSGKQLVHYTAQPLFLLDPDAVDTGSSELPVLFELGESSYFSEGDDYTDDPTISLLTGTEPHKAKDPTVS

[7] = alpha-synuclein stem-loop luciferase translation blockers – H4 neuroglioma cells, luminescence, confirmation (AID 1988); assay type: functional, cell-based
[8] = Trypanosoma cruzi growth suppression in host cells – NIH3T3 host cells, beta-gal luminescence, confirmation (AID 2044); assay type: functional, cell-based;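 further: intracellular parasites grown in NIH/3T3 mouse fibroblasts as host cells; luminescent beta-galactosidase reporter signal from transgenic T. cruzi replicating inside host cells; inhibitors lower the luminescence signal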
[9] = NIH3T3 cell viability loss – ATP luminescence, mouse fibroblasts, counter-screen, dose response (AID 2010); assay type: functional, cell-based;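 further: cells exposed to compound for about 90 hours before reading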
[10] = Intein inhibitors as potential Tuberculosis drugs, a cytotoxicity screen. [Related pubchem assays (depositor defined):AID2221, AID2223, AID434968, AID435010, AID449749, AID449750, AID489010]; assay type: functional
[11] = HEK-293T cell viability reduction – luminescence, B-cell screen hits, cytotoxicity control for BCR NF-kB inhibitor project, dose response (AID 489021); assay type: functional, cell-based;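 further: HEK-293T cells carrying an NF-kB luciferase reporter; cells exposed to compound for about 14 hours before viability readout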
HEK293 [12] = experiment: EBV LMP1 TES2 canonical NF-kB signalling blockers – cell-based, HEK293, luciferase, cherry-pick, dose response (AID 588343); assay type: functional; details: Homo sapiens
[13] = molecular target: T3, Replicative DNA helicase DnaB (Mycobacterium tuberculosis, UniProt P9WMR3); experiment: DnaB intein splicing inhibitors, dose response, biochemical, cell-free fluorescence (AID 449749); assay type: functional
T3 sequence (P9WMR3 whole entry): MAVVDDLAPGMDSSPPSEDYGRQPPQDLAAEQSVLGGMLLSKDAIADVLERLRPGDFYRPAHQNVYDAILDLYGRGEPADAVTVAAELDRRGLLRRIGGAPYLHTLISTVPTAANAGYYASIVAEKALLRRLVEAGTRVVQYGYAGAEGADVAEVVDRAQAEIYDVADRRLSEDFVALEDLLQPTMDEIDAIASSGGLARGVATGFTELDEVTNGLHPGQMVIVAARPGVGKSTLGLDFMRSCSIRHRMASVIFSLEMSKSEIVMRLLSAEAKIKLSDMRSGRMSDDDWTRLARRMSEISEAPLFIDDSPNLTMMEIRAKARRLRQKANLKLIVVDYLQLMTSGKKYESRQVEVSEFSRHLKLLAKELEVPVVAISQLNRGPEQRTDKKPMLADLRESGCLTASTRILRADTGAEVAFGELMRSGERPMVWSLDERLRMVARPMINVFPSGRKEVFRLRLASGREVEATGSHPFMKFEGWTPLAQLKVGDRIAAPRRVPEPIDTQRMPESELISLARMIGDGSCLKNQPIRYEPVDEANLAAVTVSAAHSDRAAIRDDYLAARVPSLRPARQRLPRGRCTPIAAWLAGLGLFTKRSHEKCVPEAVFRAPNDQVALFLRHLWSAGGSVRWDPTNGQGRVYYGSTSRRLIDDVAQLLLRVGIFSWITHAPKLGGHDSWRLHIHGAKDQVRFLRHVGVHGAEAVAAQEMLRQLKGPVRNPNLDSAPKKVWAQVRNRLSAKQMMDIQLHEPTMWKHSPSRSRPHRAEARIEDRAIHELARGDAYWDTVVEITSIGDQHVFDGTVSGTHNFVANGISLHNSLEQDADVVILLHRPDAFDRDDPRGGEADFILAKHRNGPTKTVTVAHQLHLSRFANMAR

Protein RecA = molecular target: T4, Protein RecA (Mycobacterium tuberculosis, UniProt P9WHJ3); experiment: Fluorescence Cell-Free Homogeneous Dose Retest to Identify Inhibitors of RecA-Intein Splicing Activity. [Related pubchem assays (depositor defined):AID2097, AID2223, AID489010, AID492950]; assay type: functional
T4 sequence (P9WHJ3 whole entry): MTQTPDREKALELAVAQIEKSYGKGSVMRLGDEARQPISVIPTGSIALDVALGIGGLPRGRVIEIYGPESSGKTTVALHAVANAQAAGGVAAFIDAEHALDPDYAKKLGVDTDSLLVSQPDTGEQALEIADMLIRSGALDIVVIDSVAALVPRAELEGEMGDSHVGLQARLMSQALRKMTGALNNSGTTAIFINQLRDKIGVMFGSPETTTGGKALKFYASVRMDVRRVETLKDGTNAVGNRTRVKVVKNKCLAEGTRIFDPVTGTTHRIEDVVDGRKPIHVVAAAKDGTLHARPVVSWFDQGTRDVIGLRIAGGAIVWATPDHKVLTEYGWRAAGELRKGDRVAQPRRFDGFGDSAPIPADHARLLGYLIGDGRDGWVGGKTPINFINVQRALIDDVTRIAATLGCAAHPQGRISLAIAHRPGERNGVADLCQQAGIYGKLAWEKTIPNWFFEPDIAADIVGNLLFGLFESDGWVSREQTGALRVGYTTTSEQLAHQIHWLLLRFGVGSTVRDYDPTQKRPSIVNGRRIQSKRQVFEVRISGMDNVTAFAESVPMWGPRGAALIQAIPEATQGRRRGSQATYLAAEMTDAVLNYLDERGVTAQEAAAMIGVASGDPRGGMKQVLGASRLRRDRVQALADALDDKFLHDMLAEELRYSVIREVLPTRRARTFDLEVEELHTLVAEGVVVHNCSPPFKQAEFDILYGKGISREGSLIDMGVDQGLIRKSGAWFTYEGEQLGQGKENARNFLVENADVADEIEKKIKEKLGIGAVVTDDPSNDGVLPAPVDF

[14] = molecular target: UDP-galactopyranose mutase (Mycobacterium tuberculosis, UniProt P9WIQ1); experiment: Inhibitors of Mycobacterium tuberculosis UDP-galactopyranose mutase (UGM) enzyme Measured in Biochemical System Using Plate Reader - 2105-02_Inhibitor_Dose_CherryPick_Activity. [Related pubchem assays (depositor defined):AID504439]
Sequence of UDP-galactopyranose mutase (P9WIQ1 whole entry): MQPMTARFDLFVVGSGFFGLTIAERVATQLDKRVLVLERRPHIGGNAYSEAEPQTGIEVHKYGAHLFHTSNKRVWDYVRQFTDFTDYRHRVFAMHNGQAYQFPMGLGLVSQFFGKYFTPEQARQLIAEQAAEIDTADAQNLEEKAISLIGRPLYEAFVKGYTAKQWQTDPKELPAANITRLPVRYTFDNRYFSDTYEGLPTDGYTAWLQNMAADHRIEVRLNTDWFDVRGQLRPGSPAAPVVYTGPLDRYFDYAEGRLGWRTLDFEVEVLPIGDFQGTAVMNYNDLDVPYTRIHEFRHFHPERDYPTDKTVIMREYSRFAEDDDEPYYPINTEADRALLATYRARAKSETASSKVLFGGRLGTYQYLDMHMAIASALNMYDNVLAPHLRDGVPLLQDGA

BJ [15] = experiment: BJ-TERT fibroblast viability loss – cell-based, RAS-independent, luminescence, dose response (AID 1933); assay type: functional; details: Homo sapiens
BJ [16] = experiment: cells; assay type: functional, cell-based; details: Homo sapiens
BJ [17] = experiment: BJ-TERT-LT-ST fibroblast viability loss – cell-based, RAS-independent, luminescence, dose response (AID 1935); assay type: functional; details: Homo sapiens;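 further: BJ fibroblasts immortalized with TERT plus LT and ST oncogenes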
[18] = DRD fibroblast viability loss – cell-based, non-viral oncogenic, luminescence, dose response (AID 1934); assay type: functional; details: Homo sapiens
[19] = HEK-293T viability loss after treatment – luminescence, T-cell screen hits, cytotoxicity control for TCR NF-kB inhibitor project, dose response (AID 489026); assay type: functional, cell-based;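 further: cells exposed to compound about 14 hours before the viability readout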
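Wherever CC50 is given: cells exposed to compound for 72 hours before luminescence readout.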

With `CCn1c(SCc2ccccc2Cl)nc2nc3c(cc2c1=O)CCCC3` the IC50 (Cysteine protease ATG4B) was 12.5 µM (active), the IC50 (Phospholipase A2) was 4.98 µM (active) and the EC50 (HEK293 [1]) was > 59.6 µM (inactive). For the same compound, the EC50 (HEK293 [2]) was > 59.6 µM (inactive).
In the case of `O=C(CCl)N(c1ccc(Cl)cc1)c1c[nH]c2ccccc12`, the EC50 [3] is reported as 4.07 µM (inconclusive), the EC50 [4] is reported as 13.2 µM (active) and the EC50 [5] is reported as 15.5 µM (active). The EC50 [6] was 2.72 µM (active), the EC50 [7] was 8.46 µM (active) and the EC50 [8] was 0.412 µM (active). The EC50 [9] was < 6 µM (inconclusive), the CC50 [10] was 0.86 µM (active) and the IC50 [11] was 15 µM (active). For the same compound, the AC50 (HEK293 [12]) was 12.5 µM (active), the AC50 [13] was 2.46 µM (active) and the EC50 (Protein RecA) was 0.195 µM (active).
In the case of `Cc1nn(C)cc1N1C(=O)c2cccc3c(N)ccc(c23)C1=O`, the AC50 [14] is reported as 1.91 µM (active).
For `O=C(Cc1ccc(-c2ccccc2)cc1)NCc1ccccc1`, the EC50 (BJ [15]) was 0.385 µM (active), the EC50 (BJ [16]) was 13.6 µM (inconclusive) and the EC50 (BJ [17]) was 0.279 µM (inconclusive). For the same compound, the EC50 [18] was 0.489 µM (active) and the IC50 [19] was > 80 µM (inactive).
